Reference: patent US20040138315A1 (priority 2000, published 2004)

Columns and labels:
[1] = test system: PAF-acether-induced aggregation of platelet rich plasma (PAF receptor); assay: PAF, platelet aggregation (463010); format: cell-based, rabbit; settings: for ANT. (antagonist response), PAF platelet aggregation / AG. (agonist response), PAF platelet aggregation: 30 μM, platelet rich plasma, rabbit; for AG. (agonist response), PAF platelet aggregation: relative to 5 nM PAF-acether
Protocol: (§1) Test compounds referred to above were evaluated for inhibition of platelet aggregation induced by adenosine diphosphate, arachidonic acid, phorbol ester and Platelet Activating Factor (PAF) at […]. The following methods were employed in this analysis, and reference compounds for the respective assays are indicated in Appendix 1:
Venous blood obtained from male or female New Zealand derived albino rabbits weighing 2.5-3 kg is mixed with one-tenth volume of trisodium citrate (0.13 M) and centrifuged at room temperture for 10 min at 220 g. Test Substance (30 μM)-induced aggregation of the supernatant platelet rich plasma by 50 percent or more (≧50%) within 5 min, relative to control 5 nM platelet activating factor-acether (PAF-acether) response at 37[…] as measured by an optical aggregometer, indicates possible PAF receptor agonist activity.
At a test substance concentration where no significant agonist activity is seen, ability to reduce the PAF-acether-induced maximum non-reversible aggregation response by 50 percent or more (≧50%) indicates PAF receptor antagonist activity.

cyclooxygenase COX-1 = target: T1, cyclooxygenase COX-1 (Homo sapiens, UniProt P23219); assay: Cyclooxygenase COX-1 inhibition in human platelets, PGE2 EIA (116010); format: cell-based; settings: screened at 10 μM
T1 construct: host or cells: human platelets
T1 sequence (P23219 24-599): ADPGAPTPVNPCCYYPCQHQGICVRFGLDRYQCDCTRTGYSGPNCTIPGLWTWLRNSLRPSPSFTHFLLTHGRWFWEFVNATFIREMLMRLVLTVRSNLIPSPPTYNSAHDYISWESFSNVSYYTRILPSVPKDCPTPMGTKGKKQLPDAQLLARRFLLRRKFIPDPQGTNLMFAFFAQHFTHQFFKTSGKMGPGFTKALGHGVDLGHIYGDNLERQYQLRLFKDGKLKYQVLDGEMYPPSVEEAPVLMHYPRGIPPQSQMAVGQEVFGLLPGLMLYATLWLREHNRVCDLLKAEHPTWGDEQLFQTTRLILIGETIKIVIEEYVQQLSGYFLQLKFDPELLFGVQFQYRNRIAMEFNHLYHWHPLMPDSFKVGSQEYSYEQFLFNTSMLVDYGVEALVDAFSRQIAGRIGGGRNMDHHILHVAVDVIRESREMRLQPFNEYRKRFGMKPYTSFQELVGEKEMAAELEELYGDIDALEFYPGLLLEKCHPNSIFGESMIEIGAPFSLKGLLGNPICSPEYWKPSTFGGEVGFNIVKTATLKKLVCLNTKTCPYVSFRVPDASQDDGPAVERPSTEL
Protocol: In these assays, in addition to the designations set forth above, IG-05 refers to resorcinol and IG-06 refers to orcinol.
To assess COX-1 inhibition, test compound and/or vehicle was incubated with human platelets (5×10^7/well) for 15 minutes at5 37° C. Calcium ionophore A23187 (10 μM) was added to induce the arachidonic acid cascade. After another 15 minutes incubation at 37° C., PGE2 levels in the supernatant were quantiated using the Amersham EIA kit. Compounds were screened at 10 μM.

Cannabinoid CB1 = target: T2, Cannabinoid CB1 (Mus musculus, UniProt P47746); assay: Cannabinoid CB1 tissue assay, vas deferens (416000); format: cell-based
T2 construct: tissue 416000; host or cells: vas deferens
T2 sequence (P47746 whole entry): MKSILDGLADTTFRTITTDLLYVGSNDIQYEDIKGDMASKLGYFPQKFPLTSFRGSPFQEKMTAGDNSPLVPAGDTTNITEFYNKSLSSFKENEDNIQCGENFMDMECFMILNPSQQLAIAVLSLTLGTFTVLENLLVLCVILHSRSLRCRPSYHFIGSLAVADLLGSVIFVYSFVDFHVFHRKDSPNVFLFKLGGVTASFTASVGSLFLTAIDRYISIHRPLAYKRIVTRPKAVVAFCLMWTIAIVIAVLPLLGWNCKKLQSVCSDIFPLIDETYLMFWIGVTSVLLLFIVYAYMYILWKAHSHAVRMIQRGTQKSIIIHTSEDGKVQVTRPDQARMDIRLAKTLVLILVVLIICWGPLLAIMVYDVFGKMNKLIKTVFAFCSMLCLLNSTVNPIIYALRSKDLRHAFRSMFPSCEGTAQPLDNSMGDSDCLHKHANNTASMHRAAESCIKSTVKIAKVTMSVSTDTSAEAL

[2] = test system: PMA-induced aggregation of platelet rich plasma (phorbol ester receptor); assay: Phorbol ester, platelet aggregation (461500); format: cell-based, rabbit; settings: for ANT. (antagonist response), phorbol ester platelet aggregation / AG. (agonist response), phorbol ester platelet aggregation: 30 μM, platelet rich plasma, rabbit; for AG. (agonist response), phorbol ester platelet aggregation: relative to PMA 0.5 μM
Protocol: as §1
Venous blood obtained from male or female New Zealand derived albino rabbits weighing 2.5-3 kg is mixed with one-tenth volume of trisodium citrate (0.13 M) and centrifuged at room temperature for 10 min at 220 g. Test substance (30 μM)-induced aggregation of the supernatant platelet rich plasma by 50 percent or more (≧50%) within 5 min, relative to control phorbol myristate acetate (PMA, 0.5 μM) response at 37° C. as measured by an optical aggregometer, indicates possible phorbol ester receptor agonist activity.
At a test substance concentration where no significant agonist activity is seen, ability to reduce the PMA (0.5 μM)-induced maximum non-reversible aggregation response by 50 percent or more (>50%) indicates phorbol ester receptor antagonist activity.

thromboxane A2 synthase = target: T3, thromboxane A2 synthase (Oryctolagus cuniculus, UniProt G1TAZ9); assay: Thromboxane A2 synthase inhibition, TXB2 radioimmunoassay (194000); format: biochemical, rabbit; settings: screened at 100 μM
T3 sequence (G1TAZ9 1-530): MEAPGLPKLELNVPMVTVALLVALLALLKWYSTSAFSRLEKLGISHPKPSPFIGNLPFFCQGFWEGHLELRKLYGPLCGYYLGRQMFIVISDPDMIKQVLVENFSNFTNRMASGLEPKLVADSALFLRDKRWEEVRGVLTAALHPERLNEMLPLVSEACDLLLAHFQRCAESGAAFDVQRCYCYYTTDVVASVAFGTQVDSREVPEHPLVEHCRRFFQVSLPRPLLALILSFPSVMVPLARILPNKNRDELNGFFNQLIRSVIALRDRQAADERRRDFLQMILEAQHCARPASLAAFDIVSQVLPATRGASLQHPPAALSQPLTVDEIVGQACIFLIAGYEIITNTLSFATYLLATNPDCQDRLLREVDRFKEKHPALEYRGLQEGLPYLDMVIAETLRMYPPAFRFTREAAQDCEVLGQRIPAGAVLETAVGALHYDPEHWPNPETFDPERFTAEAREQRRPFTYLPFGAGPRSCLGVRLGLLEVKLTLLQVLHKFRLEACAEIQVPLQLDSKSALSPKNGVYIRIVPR
Protocol: Test compounds (IG-1 through IG-11) were evaluated for their ability to inhibit cyclooxygenase COX-1, cyclooxygenase COX-2, and thromboxane synthase. In these assays, in addition to the designations set forth above, IG-05 refers to resorcinol and IG-06 refers to orcinol.
To assess Thromboxane A2 synthase, thromboxane A2 synthase isolated from a microsomal fraction of rabbit platelets by conventional centrifugation was used. The test compound and/or vehicle was incubated with 1:200 dilution of thromboxane A2 synthase and 5 ng prostaglandin G2 as substrate in Tris buffer pH 7.5 for 30 minutes at 37° C. The thromboxane A2 formed is immediately converted to thromboxane B2, which was quantitated by a radioimmunoassay. Compounds are screened at 100 μM.

[3] = test system: adenosine diphosphate-induced aggregation of platelet rich plasma (ADP receptor); assay: Adenosine diphosphate, platelet aggregation (404010); format: cell-based, rabbit; settings: for ANT. (antagonist response), ADP platelet aggregation / AG. (agonist response), ADP platelet aggregation: 30 μM, platelet rich plasma, rabbit; for AG. (agonist response), ADP platelet aggregation: relative to […] ADP
Protocol: as §1
Venous blood obtained from male or female New Zealand derived albino rabbits weighing 2.5-3 kg was mixed with one-tenth volume of trisodium citrate (0.13 M) and centrifuged at room temperature for 10 min at 220 g. Test substance (30 EM)-induced aggregation of the supernatant platelet rich plasma by 50 percent or more (>50%) more relative to 1.2 μM adenosine diphosphate control response at 37° C. as mearsured by an optical aggregometer, indicates possible ADP receptor agonist activity.
At a test substance concentration where no significant agonist activity is seen, ability to reduce the adenosine diphosphate-induced maximum non-reversible aggregation response by 50 percent or more (≧50%) was indicative of ADP receptor antagonist activity.

[4] = test system: arachidonic acid-induced aggregation of platelet rich plasma; assay: Arachidonic acid, platelet aggregation (412510); format: cell-based, rabbit; settings: for ANT. (antagonist response), arachidonic acid platelet aggregation / AG. (agonist response), arachidonic acid platelet aggregation: 30 μM, platelet rich plasma, rabbit; for AG. (agonist response), arachidonic acid platelet aggregation: relative to 100 μM arachidonic acid
Protocol: as §1
Venous blood obtained from male or female New Zealand derived albino rabbits weighting 2.5-3 kg was mixed with one-tenth volume of trisodeium citrate (0.13M) and centrifuged at room temperature for 10 min at 220 g. Test substance (30 μM)-induced aggregation of the supernatant platelet rich plasma by 50 percent or more (≧50%) within 5 min, relative to 100 μM arachidonic acid response at 37° C. as measured by an optical aggregometer indicates possible agonist activity.
At a test substance concentration where no significant agonist activity is seen, ability to reduce the arachidonic acid-induced maximum non-reversible aggregation response by 50 percent or more (>50%) was indicative of antagonist activity.

CC(C)CCCC(C)(C)c1cc(O)cc(O)c1
melting point: 95 to 96 °C

Cc1nnc2n1-c1sc(CCC(=O)N3CCOCC3)cc1C(c1ccccc1Cl)=NC2 [WEB-2086, reference compound]
Concurrent RESP., reference compound, PAF platelet aggregation - Antagonist ([1]; 0.3 μM, batch 27927): 97

COc1cc(C(C)(C)CCCC(C)C)cc(OC)c1O [IG-2, 4-(1,1,5-trimethylhexyl)-2,6-dimethoxyphenol]
COX-1 inhibition (in words) (cyclooxygenase COX-1): potent inhibitors of COX-1

CCCCC/C=C\C/C=C\C/C=C\C/C=C\CCCC(=O)NCCO [Anandamide, reference compound]
Concurrent RESP., reference compound, Cannabinoid CB1 - Agonist (Cannabinoid CB1; 0.1 μM, batch 27098): 100

Cc1ccc2c(c1)-c1c(O)cc(C(C)(C)CCCC(C)C)cc1OC2(C)C [IG-11, 3-Norpentyl-3-(1,1,5-trimethylhexyl)cannabinol]
AG. (agonist response), Cannabinoid CB1 (Cannabinoid CB1; 30 μM): 102%
ANT. (antagonist response), PAF platelet aggregation [1]: 11%
AG. (agonist response), PAF platelet aggregation [1]: 0%
ANT. (antagonist response), phorbol ester platelet aggregation [2]: 8%
AG. (agonist response), phorbol ester platelet aggregation [2]: 0%
Thromboxane synthase inhibition (in words) (thromboxane A2 synthase): significantly inhibit thromboxane synthase
ANT. (antagonist response), ADP platelet aggregation [3]: 0%
AG. (agonist response), ADP platelet aggregation [3]: 0%
ANT. (antagonist response), arachidonic acid platelet aggregation [4]: 0%
AG. (agonist response), arachidonic acid platelet aggregation [4]: 0%

CN[C@@H]1C[C@H]2O[C@@](C)([C@@H]1OC)n1c3ccccc3c3c4c(c5c6ccccc6n2c5c31)C(=O)NC4 [Staurosporine, reference compound]
Concurrent RESP., reference compound, phorbol ester platelet aggregation - Antagonist ([2]; 3 μM, batch 27699): 100

Nc1nc(Cl)nc2c1ncn2[C@@H]1O[C@H](CO)[C@@H](O)[C@H]1O [2-Chloroadenosine, reference compound]
Concurrent RESP., reference compound, ADP platelet aggregation - Antagonist ([3]; 10 μM, batch 27737): 90

Cc1cc(O)cc(O)c1 [IG-6, orcinol]
COX-1 inhibition (in words) (cyclooxygenase COX-1): potent inhibitors of COX-1

CC1=CCC2C(C1)c1c(O)cc(C(C)(C)CCCC(C)C)cc1OC2(C)C (stereo not drawn) [IG-9, 3-Norpentyl-3-(1,1,5-trimethylhexyl)-Δ 8-tetrahydrocannabinol]
ANT. (antagonist response), PAF platelet aggregation [1]: 4%
AG. (agonist response), PAF platelet aggregation [1]: 0%
ANT. (antagonist response), phorbol ester platelet aggregation [2]: 4%
AG. (agonist response), phorbol ester platelet aggregation [2]: 0%
ANT. (antagonist response), ADP platelet aggregation [3]: 7%
AG. (agonist response), ADP platelet aggregation [3]: 0%
ANT. (antagonist response), arachidonic acid platelet aggregation [4]: 0%
AG. (agonist response), arachidonic acid platelet aggregation [4]: 0%

COc1ccc2c(c1)c(CC(=O)O)c(C)n2C(=O)c1ccc(Cl)cc1 [Indomethacin, reference compound]
Concurrent RESP., reference compound, arachidonic acid platelet aggregation - Antagonist ([4]; 0.3 μM, batch 27731): 100

CCCCC/C=C\C/C=C\C/C=C\C/C=C\CCCC(=O)O [Arachidonic Acid, reference compound]
Concurrent RESP., reference compound, arachidonic acid platelet aggregation - Agonist ([4]; 100 μM, batch 27731): 100

COc1cc(C(C)(C)CCCC(C)C)cc(OC)c1OC [IG-7, 1-(1,1,5-Trimethylhexyl)-3,4,5-trimethoxybenzene]
AG. (agonist response), Cannabinoid CB1 (Cannabinoid CB1; 30 μM): −106%
ANT. (antagonist response), Cannabinoid CB1 (Cannabinoid CB1; 30 μM): 100%
ANT. (antagonist response), PAF platelet aggregation [1]: 4%
AG. (agonist response), PAF platelet aggregation [1]: 0%
ANT. (antagonist response), phorbol ester platelet aggregation [2]: 9%
AG. (agonist response), phorbol ester platelet aggregation [2]: 0%
ANT. (antagonist response), ADP platelet aggregation [3]: 11%
AG. (agonist response), ADP platelet aggregation [3]: 0%
ANT. (antagonist response), arachidonic acid platelet aggregation [4]: 0%
AG. (agonist response), arachidonic acid platelet aggregation [4]: 0%

CCCCCCCCCCCCCC(=O)O[C@@H]1[C@@H](C)[C@@]2(O)[C@@H](C=C(CO)C[C@]3(O)C(=O)C(C)=C[C@@H]23)[C@@H]2C(C)(C)[C@]12OC(C)=O [PMA, phorbol myristate acetate, reference compound]
Concurrent RESP., reference compound, phorbol ester platelet aggregation - Agonist ([2]; 0.5 μM, batch 27699): 100

CCCCCCCCCCCCCCCCOC[C@H](COP(=O)([O-])OCC[N+](C)(C)C)OC(C)=O [PAF, platelet activating factor-acether, reference compound]
Concurrent RESP., reference compound, PAF platelet aggregation - Agonist ([1]; 5 nM, batch 27927): 100
